Experimental data taken from patent US20220170028A1, “NOVEL INTERLEUKIN-2 VARIANTS AND BIFUNCTIONAL FUSION MOLECULES THEREOF” (Cugene Inc, priority 2019, published 2022).

Columns and labels:
IL-2Rβ and γc complex = target: T1, IL-2Rβ and γc complex (Homo sapiens, UniProt P14784+P31785); assay: ELISA binding to IL-2Rβ and γc complex
T1 construct: IL-2R6-ECD (NP_000869); γc-ECD (NP_000197)
T1 sequence (P14784 27-240 limits assumed): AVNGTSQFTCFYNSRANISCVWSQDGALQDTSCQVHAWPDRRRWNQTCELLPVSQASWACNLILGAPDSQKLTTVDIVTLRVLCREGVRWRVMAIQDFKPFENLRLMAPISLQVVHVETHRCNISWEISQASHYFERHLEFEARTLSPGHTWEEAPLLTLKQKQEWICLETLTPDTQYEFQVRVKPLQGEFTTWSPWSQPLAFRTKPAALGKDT
T1 sequence (P31785 23-262 limits assumed): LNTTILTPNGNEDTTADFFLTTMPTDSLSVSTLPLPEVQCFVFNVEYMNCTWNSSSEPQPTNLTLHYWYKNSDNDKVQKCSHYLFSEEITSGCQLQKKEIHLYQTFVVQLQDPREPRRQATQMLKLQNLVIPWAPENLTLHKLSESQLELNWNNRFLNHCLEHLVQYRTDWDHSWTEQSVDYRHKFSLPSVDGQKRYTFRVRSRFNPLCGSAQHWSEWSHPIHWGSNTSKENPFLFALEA
Experimental: Briefly, non-covalent complex of IL-2R6-ECD (NP_000869) and γc-ECD (NP_000197) through heterodimeric Fc chains was coated onto the wells of Nunc Maxisorp 96-well microplates at 2 μg/well. After overnight incubation at 4° C. and blocking with superblock (ThermoFisher), 3-fold serial dilutions of IL-2 Fc fusion proteins starting at either 100 or 270 nM were added to each well at 100 Following a one-hour incubation at room temperature, biotin mouse anti-human IL-2 Ab (BD BioSciences) at 1 μg/ml was added to each well followed by incubation with HRP-Avidin (ThermoFisher) at 1 μg/ml for 1 hour. Wells were thoroughly aspirated and washed three times with PBS/0.05% Tween-20 following each step. Finally, 100 TMB substrate was added to each well; the plate was developed at room temperature in the dark for 10 minutes, and 100 of stop solution (2N Sulfuric acid, Ricca Chemical) was added. Absorbance was determined at 450 nm; curves were fit using Prism software (Graph Pad) and illustrated in FIG. 11E.

Treg cells = assay: Treg proliferation and expansion in mice after a single subcutaneous injection (Example 9); format: in vivo, mouse; conditions: 0.3 mg/kg single s.c., C57/BL6 mice
Experimental: IL-2 variant Fc fusion proteins were administered to mice and their ability to preferentially proliferate and expand regulatory T cells (CD4+CD25+FoxP3+ T cells) over effector T cells and NK cells were determined in vivo.
Female C57/BL6 mice (7-week old) were received from Charles River Laboratory and acclimated in house for at least 7 days before the study. Vehicle (PBS), 0.3 mg/kg of each test compounds, or IL-2 benchmark compounds were subcutaneously administered to mice on day 0. Peripheral blood samples were collected into heparin-treated tubes on days 3, 5 and 7 post-treatment. Each group contained 6 mice and baseline blood was collected 2 days prior to the treatment (day −2). After red blood cell lysis, total viable mononuclear blood cells were counted by trypan blue dead cell exclusion method and proceeded to intracellular staining for immune cell phenotype and Ki67 proliferation markers using flow cytometric analysis. Cells were stained separately with two panels of antibodies as listed: 1) anti-mouse Foxp3-FITC, Ki67-PE, anti-mouse CD25-APC and anti-mouse CD4-Percpcy5.5 (1:50 dilution) for CD4+T-regulatory cells (Treg); 2) anti-mouse CD3-FITC, Ki67-PE, anti-mouse CD335-APC and anti-mouse CD8-Percpcy5.5 (1:50 dilution) for CD8+T and NK cells.

binding to IL-2 dimeric receptor complex, EC50 (IL-2Rβ and γc complex): did not show appreciable binding
Substance: P-0511: IL-2 L19H/S125I/Q126E Fc fusion, SEQ ID NO: 213
Treg/Tconv ratio (Ki67 stimulation and cell counts) (Treg cells; all measured time points): most beneficial Treg/Tconv ratio
stimulation of Treg cell proliferation and expansion in vivo (in words) (Treg cells; days 3, 5, 7): stronger in vivo efficacy
